Source: ChEMBL document CHEMBL5303711, “ECBD screening data for assay EOS300108” (2023)
Where a name gives a salt, the structure may show the parent alone. The source made the active and inactive calls. No rule for the calls is given here.

Assay: Cytotoxicity activity against human HepG2 cells assessed by CellTiter-Glo luminescent cell viability assay.
Type: toxicity, cell-based
Design: assay stage confirmatory assay, source tissue liver
Details: HepG2 cells, read-out: IC50 relative

SMILES | CC50
CC(C)(C)n1ncc(N2CCN(c3ccc(C#N)cc3F)CC2)c(Cl)c1=O | 22.7 µM (active)
C[C@@H]1CN(Cc2ccc(F)cc2)CCN1C(=O)COc1ccc(Cl)cc1NC(N)=O [BX 471 FREE BASE] | 4.8 µM (active)
COc1cc2c(NC3CCN(C4CCCCC4)CC3)nc(N3CCCN(C(C)C)CC3)nc2cc1OCCCN1CCCCC1 | 6.6 µM (active)
c1ccc([C@H](CC2CCC2)NC2CCC3(CC2)OCCO3)cc1 | 4 µM (active)
Cc1ccn(-c2ccc(NC(=O)c3ccccn3)cc2)n1 | 4.5 µM (active)
CCn1c(NC(=O)c2ccc(=O)n(CCOc3ccccc3)n2)nc2ccccc21 | 4.6 µM (active)
CN1CCC(NC(=O)c2ccc3c(c2)n(Cc2ccccc2)c(=O)c2ccnn23)CC1 | 9.8 µM (active)
CN(C)S(=O)(=O)c1cccc(-n2sc3ccccc3c2=O)c1 | 9.3 µM (active)
CCN(c1nc(N)c(C(=O)NC(=N)N)nc1Cl)C(C)C | 12.5 µM (active)
NCC1CN(CC2CC2)CC12CCCCC2 (stereo not given) | 13.1 µM (inactive)
Nc1nc(C2CC(N)C2)cc(N2CCC(OCc3ccccc3)CC2)n1 (stereo not given) | 10.8 µM (active)
CCc1cc(N2CCC(NC(=O)N3CCN(c4cccnn4)CC3)CC2)ncn1 | 16.3 µM (inactive)
Cc1ccc(S(=O)(=O)N2CCN(c3cc(-n4ccnc4C)ncn3)CC2)cc1C | 5.1 µM (active)
CN(C)C[C@@H]1CCn2cc(c3ccccc32)C2=C(C(=O)NC2=O)c2cn(c3ccccc23)CCO1 | 3 µM (active)
CCN1CCN(c2ccc(C(=O)Nc3nc(-c4cccnc4)cs3)cc2)CC1 | 5.8 µM (active)
O=c1[nH]ccc2c(Br)cccc12 | 8.3 µM (inactive)
CCN1/C(=C/C(C)=C/c2sc3ccccc3[n+]2CC)Sc2ccccc21 | 0.4 µM (active)
COc1cc2c(NC3CCN(CC4CCCCC4)CC3)nc(N3CCCN(C(C)C)CC3)nc2cc1OCCCN1CCCCC1 | 1.1 µM (active)
CCN(CC)c1cc(C)nc(Nc2ccc(NC(=O)C3CCCO3)cc2)n1 (stereo not given) | 11.3 µM (active)
CN(C)C/C=C/C(=O)Nc1cccc(C(=O)Nc2ccc(Nc3nccc(-c4cccnc4)n3)cc2)c1 | 1 µM (active)
Cc1ccccc1OCC(=O)Nc1ccc(OC2CCN(C)CC2)cc1 | 13.6 µM (inactive)
CCNc1cc2[o+]c3cc(NCC)c(C)cc3c(-c3ccccc3C(=O)OCC)c2cc1C | 1 µM (active)
COc1cccc(-c2cc(F)ccc2[C@H]2Cc3nc(N)nc(C)c3C(=O)N2)n1 | < 0.1 µM (active)

SMILES | CC50
O=C1CCCN1c1ccc(S(=O)(=O)Nc2cccc3cccnc23)cc1 | 9.7 µM (active)
OCC1CCCN(CCNCc2ccc(Cl)c(Cl)c2)C1 (stereo not given) | 5.7 µM (active)
CCCCOc1c(C(=O)c2c(F)cc(C)cc2F)c[nH]c2nncc1-2 | 50 µM (inactive)
CNc1cc2c(Nc3cccc(Br)c3)ncnc2cn1 | 20.5 µM (inactive)
Cc1nn(-c2ccccc2)nc1C(=O)Nc1ccc(S(=O)(=O)NCCCN2CCOCC2)cc1 | 10.3 µM (active)
CCOc1cc2ncc(C#N)c(Nc3ccc(F)c(Cl)c3)c2cc1NC(=O)/C=C/CN(C)C [PELITINIB] | 1.8 µM (active)
COc1ccc2nc(NC(=O)N(C)Cc3nc(C)cs3)sc2c1 | 12.7 µM (inactive)
CC(=O)NCCc1ccc(C(=O)Cn2ncc(Cl)c(Cl)c2=O)s1 | 7.8 µM (active)
COc1c(C)ncnc1NCc1cccc(C(F)(F)F)c1 | 2.9 µM (active)
Cc1ccc(Sc2ccccc2N2CCNCC2)c(C)c1 [VORTIOXETINE] | 4.1 µM (active)
CC1CN(CCS(=O)(=O)c2ccc(Oc3ccc(S(=O)(=O)CCN4CC(C)OC(C)C4)cc3)cc2)CC(C)O1 (stereo not given) | 6.1 µM (active)
O=C(Cn1ncc(Cl)c(Cl)c1=O)NCCC1=CCCCC1 | 4.4 µM (active)
Cc1ccc(NC(=O)c2ccc(Cl)s2)cc1S(=O)(=O)N1CCOCC1 | 4.7 µM (active)
CC(C)(C)c1cc(C(C)(C)C)c(NC(=O)c2c[nH]c3ccccc3c2=O)cc1O [IVACAFTOR] | 7.5 µM (active)
CCCN1C(=O)COc2cc(-c3noc(C(=O)NC4CCN(Cc5ccccc5)CC4)n3)ccc21 | 15.2 µM (inactive)
C[C@]12CCC3[C@@H](CC[C@]4(O)C[C@@H](O)CC[C@]34C=O)[C@@]1(O)CC[C@@H]2C1=CC(=O)OC1 (stereo not given in full) | 0.4 µM (active)
COc1ccc(OC2CCN(CCC(=O)Nc3cccc(F)c3)CC2)cc1 | 14.8 µM (inactive)
COc1cc2nccc(Oc3ccc(NC(=O)C4(C(=O)Nc5ccc(F)cc5)CC4)cc3)c2cc1OC [CABOZANTINIB] | 9.5 µM (active)
COc1ccc(C(=O)Nc2ccc(OC3CCN(C)CC3)cc2)c(OC)n1 | 13.4 µM (active)
COc1ccc(NS(=O)(=O)c2ccc(-c3cnc(C)o3)cc2)cc1OC | 3.6 µM (active)
COc1cc(C(=O)NC2CCN(C)CC2)c(F)cc1Nc1ncc2c(n1)N(C1CCCC1)CC(F)(F)C(=O)N2C | 4.1 µM (active)
Cc1cc(C(=O)Nc2nc3cccc(Cl)c3n2[C@@H]2CCCCN(C(=O)/C=C/CN(C)C)C2)ccn1 [NAZARTINIB] | 6.4 µM (active)
O=S(=O)(Nc1cc(Sc2nc[nH]n2)c(O)c2ccccc12)c1ccc(Cl)cc1 | 5.7 µM (active)

SMILES | CC50
CCOc1cc(CNCC(C)O)ccc1OCc1ccc(C)cc1 (stereo not given) | 9.4 µM (active)
Cc1ccc(S(=O)(=O)N2CCN(c3ccc(Nc4ccncc4)nn3)CC2)cc1 | 10.4 µM (active)
CC1Oc2ccc(S(=O)(=O)N3CCN(C(=O)c4ccc(Cl)cc4)CC3)cc2NC1=O (stereo not given) | 6.6 µM (active)
COc1ccc(-n2ccc(C(=O)Nc3cnccc3C(N)=O)n2)cc1 | 5.4 µM (active)
CCN(CC)Cc1cc(Nc2ccnc3cc(Cl)ccc23)ccc1O [AMODIAQUINE HYDROCHLORIDE] | 3 µM (active)
Nc1ncc(-c2cnn(CCO)c2)c2scc(-c3ccc(NC(=O)Nc4cccc(F)c4)cc3)c12 [ILORASERTIB] | 2.8 µM (active)
CC1(C)CCCN(c2ccnc(N[C@H]3CCCOCC3)n2)C1 | 8 µM (active)
Cc1ccc(NC(=O)Cc2ccc(-n3cccc3)cc2)nc1 | 1.6 µM (active)
Cc1ccc(-n2nc(C(C)(C)C)cc2NC(=O)NCc2cc(F)ccc2Oc2ccc3c(cnn3CCO)c2)cc1 [PEXMETINIB] | 2.4 µM (active)
O=C(NCCN1CCOCC1)C1CCN(c2nn3cc(-c4ccc(F)cc4)nc3s2)CC1 | 10.5 µM (active)
CNS(=O)(=O)c1cc(-c2cc(C(=O)Nc3cccc(OC)c3)n[nH]2)ccc1OC | 9.2 µM (active)
CC(C)C[C@H](NC(=O)CNC(=O)c1cc(Cl)ccc1Cl)B(O)O [IXAZOMIB] | 0.1 µM (active)
COc1ccc(CN2CCN(c3ncnc4sccc34)CC2)cc1OC | 1.4 µM (active)
COc1cc(F)cc2sc(NC(=O)c3cc(N4CCOCC4)ccn3)nc12 | 48.8 µM (inactive)
Fc1ccc([C@@H]2CCNC[C@H]2COc2ccc3c(c2)OCO3)cc1 [PAROXETINE HYDROCHLORIDE] | 4.1 µM (active)
CC[n+]1c(/C=C2/C=CN(C)c3ccccc32)ccc2ccccc21 | 2.3 µM (active)
CC(C)(C)c1ccc(S(=O)(=O)NCc2ccc(C(=O)Nc3cccnc3)cc2)cc1 | 2.6 µM (active)
CC(=O)CCS(=O)(=O)c1ccc(Cc2ccc(S(=O)(=O)CCC(C)=O)cc2)cc1 | 9.2 µM (active)
O=C(NCCO)c1cccc(-c2cc(Nc3ccc(OC(F)(F)F)cc3)ncn2)c1 | 19.4 µM (inactive)
CC(C)n1nc(-c2cc3cc(O)ccc3[nH]2)c2c(N)ncnc21 | 2.6 µM (active)
CN(C)Cc1cccc(N/C(=C2\C(=O)Nc3cc(C(=O)N(C)C)ccc32)c2ccccc2)c1 | 10 µM (active)
CN(c1ccc(C(=O)Nc2ccc(S(=O)(=O)N3CCOCC3)cc2)cc1)S(=O)(=O)c1ccccc1 | 2.9 µM (active)
Cc1cc(N2C[C@@H](C)N[C@@H](C)C2)ncc1-c1ccc(-c2nc3c(ccn3C)c(=O)[nH]2)cc1 | 1.8 µM (active)

SMILES | CC50
CCOc1ncccc1C(=O)Nc1nc2cc(C#N)ccc2n1CC | 5.9 µM (active)
CCCCOc1ccc(C(=O)N2CCN(S(=O)(=O)c3ccc4c(c3)OCCCO4)CC2)cc1 | 3.2 µM (inactive)
N#Cc1ccc(NC(=O)c2cccc3ncccc23)cc1 | 10.8 µM (inactive)
CCS(=O)(=O)N1CCc2ccc(NC(=O)Nc3cccc(F)c3)cc21 | 5.2 µM (active)
CC(=O)c1ccc(NC(=O)c2cccc3cccnc23)cc1 | 0.9 µM (active)
CCOc1cc(C(Nc2cc(C)ccn2)c2ccc3cccnc3c2O)ccc1OC (stereo not given) | 3.7 µM (active)
CCCc1cc(NCCCN2CCOCC2)n2ncc(-c3ccccc3)c2n1 | 10.8 µM (active)
O=c1[nH]c2ccccc2n1C1CCN(c2nccc(-c3cccnc3)n2)CC1 | 11.2 µM (active)
CNC(=O)[C@@H](c1ccccc1)N1CCc2cc(OC)c(OC)cc2[C@@H]1CCc1ccc(C(F)(F)F)cc1 [ALMOREXANT] | 20.4 µM (inactive)
c1csc(Cn2cccc2CN2CCC[C@H](N3CCCC3)CC2)c1 | 5.2 µM (active)
CCCCN[C@H]1CS(=O)(=O)C[C@@H]1S(=O)(=O)c1ccc(Cl)cc1 | 9.3 µM (active)
COc1ccc(-c2ccc(CNCCCN3CCOCC3)o2)cc1Cl | 12.7 µM (inactive)
CCN1/C(=C/c2ccc3ccccc3[n+]2CC)C=Cc2ccccc21 | 1 µM (active)
CC(C)c1ccc(NC(=O)c2ccc(N3CCOCC3)nc2)cc1 | 10.5 µM (inactive)
COc1ccc(-c2ccc3c(N4CCOC[C@@H]4C)nc(N4CCOC[C@@H]4C)nc3n2)cc1CO [AZD-8055] | 0.1 µM (active)
CCC(=O)Nc1ccc(Nc2nc(C)cc(N(CC)CC)n2)cc1 | 4.5 µM (active)
O=C(O)c1ccc2c(c1)nc(Nc1cccc(Cl)c1)c1ccncc12 | 5 µM (active)
O=C(Nc1cccnc1)c1ccc(Cn2nc(N3CCN(c4ccccc4)CC3)ccc2=O)o1 | 5.7 µM (active)
COc1ccc2cc1Oc1ccc(cc1)C[C@H]1c3cc(c(OC)cc3CCN1C)Oc1c(OC)c(OC)cc3c1[C@H](C2)N(C)CC3 [FANCHININ] | 1.4 µM (active)
CCCCOc1cccc(C(=O)Nc2nc3c(s2)CN(C)CC3)c1 | 7.9 µM (active)
Cc1ccc(C)c(-n2sc3cc(F)ccc3c2=O)c1 | 6.5 µM (active)
